SMILES strings stand for the structures.

The results in this text go back to patent US7973047B2, “Beta-Secretase modulators and methods of use” (Amgen Inc., priority 2010, dated 2011).

For this assay, the system named is Aβ40 in conditioned medium of cells stably expressing Amyloid Precursor Protein (APP). In words: BACE cell-based assay: Aβ40 in conditioned medium by sandwich ELISA. Particulars: cell based assay data, Table 4; unit inferred; read-out: Cell Assay. In a few lines:
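Aβ40 in conditioned medium was read by time-resolved fluorescence sandwich ELISA (capture pAb40, detection biotinylated 6E10, 4° C incubations). Compounds were applied for 24 h to cells stably expressing APP, at 10 doses from 100 or 10 μM top, 0.1% DMSO. IC50 derived from percent of control.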
For `CC(=O)N[C@@H](Cc1cc(F)cc(F)c1)[C@H](O)CN[C@H]1CC2(CCC2)Oc2cc(F)c(NC3CCOCC3)cc21` [compound 806], the IC50 was 452 nM.

On to `CC(=O)N[C@@H](Cc1cccc(F)c1)[C@H](O)CN[C@H]1CC2(CCC2)Oc2cc(F)c(-n3cccn3)cc21` [compound 807], for which the IC50 worked out at 489 nM. With `CC(=O)N[C@@H](Cc1ccc(F)cc1)[C@H](O)CN[C@H]1CC2(CCC2)Oc2cc(F)c(-n3cccn3)cc21` [compound 808] the figure was 1940 nM; with `CC(=O)N[C@@H](CC1CCC1)[C@H](O)CN[C@H]1CC2(CCC2)Oc2ncc(CC(C)(C)C)cc21` [compound 809, N-((1S,2R)-1-(cyclobutylmethyl)-3-(((4′S)-6′-(2,2-dimethylpropyl)-3′,4′-dihydrospiro[cyclobutane-1,2′-pyrano[2,3-b]pyridin]-4′-yl)amino)-2-hydroxypropyl)acetamide], 78.7 nM; with `CC(=O)N[C@@H](Cc1ccccc1Br)[C@H](O)CN[C@H]1CC2(CCC2)Oc2ncc(CC(C)(C)C)cc21` [compound 810], 197 nM.

Consider `CC(=O)N[C@@H](Cc1c(F)cc(F)cc1F)[C@H](O)CN[C@H]1CC2(CCC2)Oc2ncc(CC(C)(C)C)cc21` [compound 813], for which the IC50 was 100 nM. For the compound `CC(=O)N[C@@H](Cc1ccc(F)c(F)c1F)[C@H](O)CN[C@H]1CC2(CCC2)Oc2ncc(CC(C)(C)C)cc21` [compound 814], the IC50 turned out to be 56.3 nM.

As to `CC(=O)N[C@@H](Cc1c(F)cc(F)cc1F)[C@H](O)CN[C@H]1CC2(CCC2)Oc2ncc(CC(C)C)cc21` [compound 815], the IC50 was determined as 224 nM. In the case of `CC(=O)N[C@@H](Cc1ccc(F)c(F)c1F)[C@H](O)CN[C@H]1CC2(CCC2)Oc2ncc(CC(C)C)cc21` [compound 816], the IC50 was 137 nM. In the case of `CC(=O)N[C@@H](Cc1ccc(Cl)cc1)[C@H](O)CN[C@H]1CC2(CCCC2)Oc2ncc(CC(C)(C)C)cc21` [compound 817], the IC50 was 132 nM.

As to `CC(=O)N[C@@H](Cc1ccc(F)cc1)[C@H](O)CN[C@H]1CC2(CCC2)Oc2ncc(Cc3ccccc3)cc21` [compound 818], the IC50 was found to be 1800 nM. With `CC(=O)N[C@@H](Cc1ccccc1)[C@H](O)CN[C@H]1CC2(CCC2)Oc2ccc(CCCCCO)cc21` [compound 822] the figure was 66.2 nM. As to `CC(=O)N[C@@H](Cc1ccccc1)[C@H](O)CN[C@H]1CC2(CCC2)Oc2ccc(OC(C)C)cc21` [compound 823, N-((2S,3R)-3-hydroxy-4-((S)-6-isopropoxy-2,2-spirocyclobutyl-chroman-4-ylamino)-1-phenylbutan-2-yl)acetamide], the IC50 was 310 nM. `CC(=O)N[C@@H](Cc1cccnc1)[C@H](O)CN[C@H]1CC2(CCC2)Oc2ncc(CC(C)(C)C)cc21` [compound 824, N-((1S,2R)-3-(((4′S)-6′-(2,2-dimethylpropyl)-3′,4′-dihydrospiro[cyclobutane-1,2′-pyrano[2,3-b]pyridin]-4′-yl)amino)-2-hydroxy-1-(3-pyridinylmethyl)propyl)acetamide]: the IC50 was determined as 2.32 nM. With `CC(=O)N[C@@H](Cc1cccc(F)c1F)[C@H](O)CN[C@H]1CC2(CCC2)Oc2ncc(CC(C)(C)C)cc21` [compound 825], the IC50 is 4.34 nM.

Consider `CC(=O)N[C@@H](Cc1c(F)cccc1F)[C@H](O)CN[C@H]1CC2(CCC2)Oc2ncc(CC(C)(C)C)cc21` [compound 826], for which the IC50 is 6.93 nM. Turning to `CC(=O)N[C@@H](Cc1cccc(F)c1)[C@H](O)CN[C@H]1CC2(CCC2)Oc2cnc(CC(C)(C)F)cc21` [compound 827], the IC50 stood at 25.8 nM. Take `CC(=O)N[C@@H](Cc1ccc(Cl)cc1)[C@H](O)CN[C@H]1CC2(CCC2)Oc2ncc(CC(C)(C)F)cc21` [compound 828]: the IC50 was determined as 78.4 nM. Consider `CC(=O)N[C@@H](CC1CCCN(C)C1)[C@H](O)CN[C@H]1CC2(CCC2)Oc2ncc(CC(C)(C)C)cc21` (stereo partly shown) [compound 829], for which the IC50 was determined as 2630 nM. As for `CC(=O)N[C@@H](Cc1cncc(F)c1)[C@H](O)CN[C@H]1CC2(CCC2)Oc2ncc(CC(C)(C)C)cc21` [compound 830, N-((1S,2R)-3-(((4′S)-6′-(2,2-dimethylpropyl)-3′,4′-dihydrospiro[cyclobutane-1,2′-pyrano[2,3-b]pyridin]-4′-yl)amino)-1-((5-fluoro-3-pyridinyl)methyl)-2-hydroxypropyl)acetamide], the IC50 is 1.82 nM. In the case of `CC(=O)N[C@@H](Cc1cncc(F)c1)[C@@H](O)CN[C@H]1CC2(CCC2)Oc2ncc(CC(C)(C)C)cc21` [compound 831, N-((1S,2S)-3-(((4′S)-6′-(2,2-dimethylpropyl)-3′,4′-dihydrospiro[cyclobutane-1,2′-pyrano[2,3-b]pyridin]-4′-yl)amino)-1-((5-fluoro-3-pyridinyl)methyl)-2-hydroxypropyl)acetamide], the IC50 was 167 nM.

For the compound `COc1ccc(C[C@H](NC(C)=O)[C@H](O)CN[C@H]2CC3(CCC3)Oc3ncc(CC(C)(C)C)cc32)cc1OC` [compound 832], the IC50 was determined as 9.28 nM. Turning to `CC(=O)N[C@@H](Cc1cccc(F)c1F)[C@H](O)CN[C@H]1CC2(CCC2)Oc2ncc(CC(C)(C)F)cc21` [compound 833], the IC50 was found to be 31 nM.

Turning to `CC(=O)N[C@@H](Cc1ccc(F)c(Br)c1)[C@H](O)CN[C@H]1CC2(CCC2)Oc2ncc(CC(C)(C)F)cc21` [compound 834], the IC50 turned out to be 9.31 nM. Consider `CC(=O)N[C@@H](Cc1cc(F)cc(F)c1)[C@H](O)CN[C@H]1CC2(CCC2)Oc2ncc(CC(C)(C)F)cc21` [compound 835], for which the IC50 worked out at 2.05 nM. For `CC(=O)N[C@@H](Cc1ccc(F)c(Cl)c1)[C@H](O)CN[C@H]1CC2(CCC2)Oc2ncc(CC(C)(C)F)cc21` [compound 836], the IC50 worked out at 14.7 nM. With `CC(=O)N[C@@H](Cc1cc(F)cc(Cl)c1)[C@H](O)CN[C@H]1CC2(CCC2)Oc2ncc(CC(C)(C)F)cc21` [compound 837] the figure was 3.58 nM; with `CC(=O)N[C@@H](Cc1cccc(C(F)(F)F)c1)[C@H](O)CN[C@H]1CC2(CCC2)Oc2ncc(CC(C)(C)F)cc21` [compound 838], 13.3 nM. With `CC(=O)N[C@@H](Cc1ccc2c(c1)OCO2)[C@H](O)CN[C@H]1CC2(CCC2)Oc2ncc(CC(C)(C)C)cc21` [compound 839], the IC50 came out at 5.49 nM. With `CC(=O)N[C@@H](Cc1ccc2c(c1)OCO2)[C@H](O)CN[C@H]1CC2(CCC2)Oc2ncc(CC(C)(C)F)cc21` [compound 840], the IC50 is 27.7 nM. With `CC(=O)N[C@@H](Cc1ccccc1)[C@H](O)CN[C@H]1CC2(CCC2)Oc2ncc(CC(F)(F)F)cc21` [compound 841, N-((1S,2R)-2-hydroxy-1-(phenylmethyl)-3-(((4′S)-6′-(2,2,2-trifluoroethyl)-3′,4′-dihydrospiro[cyclobutane-1,2′-pyrano[2,3-b]pyridin]-4′-yl)amino)propyl)acetamide] the figure was 84.8 nM; with `CC(=O)N[C@@H](Cc1ccc(F)c(F)c1)[C@H](O)CN[C@H]1CC2(CCC2)Oc2ncc(CC(F)(F)F)cc21` [compound 842], 106 nM; with `CC(=O)N[C@@H](Cc1cccc(F)c1)[C@H](O)CN[C@H]1CC2(CCC2)Oc2ncc(CC(C)C)cc21` [compound 844], 3.63 nM. On to `CC(=O)N[C@@H](Cc1ccc(F)cc1)[C@H](O)CN[C@H]1CC2(CCC2)Oc2ncc(CC(C)C)cc21` [compound 845], for which the IC50 was determined as 11.4 nM.
